Reference: the Kinase Knowledgebase extract (Sharma et al. 2016)
pIC50: −log10 of the molar value.

Molecular target: CDK2 (UniProt P24941)
Assay: Enzyme Assay

| pIC50 | Compound |
| --- | --- |
| 5.50 | CC(C)COc1cc2cnc(Nc3ccc(N4CCNCC4)cc3)nc2n(C2CCCC2)c1=O |
| < 5.30 | CCOCCOc1cc2cnc(Nc3ccc(N4CCNCC4)cc3)nc2n(C2CCCC2)c1=O |
| 7.10 | O=c1c(Br)cc2cnc(Nc3ccccc3)nc2n1C1CCCC1 |
| 7.23 | Cc1cc2cnc(Nc3ccc(N4CCNCC4)cc3)nc2n(C2CCCC2)c1=O |
| 5.73 | Cc1c(Br)c(=O)n(C2CCCC2)c2nc(Nc3ccc(N4CC(C)NC(C)C4)cc3)ncc12 (stereo not drawn) |
| 5.23 | CCOC(=O)c1cc2cnc(Nc3ccc(N4CCNCC4)cc3)nc2n(C2CCCC2)c1=O |
| 7.62 | O=c1ccc2cnc(Nc3ccc(N4CCNCC4)cc3)nc2n1C1CCCC1 |
| 5.88 | Cc1c(Br)c(=O)n(C2CCCC2)c2nc(Nc3ccc(N4CCNC(C)(C)C4)cc3)ncc12 |
| 6.85 | CCc1cc2cnc(Nc3ccc(N4CCNCC4)cc3)nc2n(C2CCCC2)c1=O |
| 7.02 | Nc1cc2cnc(Nc3ccc(N4CCNCC4)cc3)nc2n(C2CCCC2)c1=O |
| 6.86 | O=c1c(F)cc2cnc(Nc3ccc(N4CCNCC4)cc3)nc2n1C1CCCC1 |
| 7.08 | CC(C)n1c(=O)ccc2cnc(Nc3ccc(N4CCNCC4)cc3)nc21 |
| < 5.30 | O=c1c(Cc2ccccc2)cc2cnc(Nc3ccc(N4CCNCC4)cc3)nc2n1C1CCCC1 |
| 6.63 | CC(=O)c1c(C)c2cnc(Nc3ccc(N4CCNCC4)cc3)nc2n(C2CCCC2)c1=O |
| 6.75 | CCc1cc2cnc(Nc3ccc(N4CCC(O)CC4)cc3)nc2n(C2CCCC2)c1=O |
| 6.25 | CC(=O)c1cc2cnc(Nc3ccc(N4CCNCC4)cc3)nc2n(C2CCCC2)c1=O |
| 6.69 | CCOCCc1cc2cnc(Nc3ccc(N4CCNCC4)cc3)nc2n(C2CCCC2)c1=O |
| 6.92 | O=c1ccc2cnc(Nc3ccc(N4CCNCC4)cc3)nc2n1C1CCCCC1 |
